Assay results: PubChem BioAssay (NCI)
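Compound exposure: 48 hours, 5 concentrations, 96-well plates. Here, GI50 denotes the concentration required for 50% inhibition of growth. At the TGI there is no net growth.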

Tests used:
Assay in all cases: growth of human tumour cells (NCI), 48 h
786-0 renal = test system: 786-0 renal
A498 renal = test system: A498 renal
A549 NSCLC = test system: A549 NSCLC
ACHN renal = test system: ACHN renal
CAKI-1 renal = test system: CAKI-1 renal
CCRF-CEM leukemia = test system: CCRF-CEM leukemia
COLO 205 colon = test system: COLO 205 colon
DU-145 prostate = test system: DU-145 prostate
EKVX NSCLC = test system: EKVX NSCLC
HCC-2998 colon = test system: HCC-2998 colon
HCT-116 colon = test system: HCT-116 colon
HCT-15 colon = test system: HCT-15 colon
HL-60(TB) leukemia = test system: HL-60(TB) leukemia
HOP-62 NSCLC = test system: HOP-62 NSCLC
HS 578T breast = test system: HS 578T breast
HT29 colon = test system: HT29 colon
IGROV1 ovarian = test system: IGROV1 ovarian
K-562 leukemia = test system: K-562 leukemia
KM12 colon = test system: KM12 colon
LOX IMVI melanoma = test system: LOX IMVI melanoma
M14 melanoma = test system: M14 melanoma
MALME-3M melanoma = test system: MALME-3M melanoma
MCF7 breast = test system: MCF7 breast
MDA-MB-231 breast = test system: MDA-MB-231 breast
MDA-MB-435 = test system: MDA-MB-435
MOLT-4 leukemia = test system: MOLT-4 leukemia
NCI-H226 lung = test system: NCI-H226 lung
NCI-H23 lung = test system: NCI-H23 lung
NCI-H460 lung = test system: NCI-H460 lung
NCI-H522 lung = test system: NCI-H522 lung
NCI/ADR-RES ovarian = test system: NCI/ADR-RES ovarian
OVCAR-3 ovarian = test system: OVCAR-3 ovarian
OVCAR-4 ovarian = test system: OVCAR-4 ovarian
OVCAR-5 ovarian = test system: OVCAR-5 ovarian
OVCAR-8 ovarian = test system: OVCAR-8 ovarian
PC-3 prostate = test system: PC-3 prostate
RPMI-8226 leukemia = test system: RPMI-8226 leukemia
RXF 393 renal = test system: RXF 393 renal
SF-268 CNS = test system: SF-268 CNS
SF-295 CNS = test system: SF-295 CNS
SF-539 CNS = test system: SF-539 CNS
SK-MEL-2 melanoma = test system: SK-MEL-2 melanoma
SK-MEL-28 melanoma = test system: SK-MEL-28 melanoma
SK-MEL-5 melanoma = test system: SK-MEL-5 melanoma
SK-OV-3 ovarian = test system: SK-OV-3 ovarian
SN12C renal = test system: SN12C renal
SNB-19 CNS = test system: SNB-19 CNS
SNB-75 CNS = test system: SNB-75 CNS
SR leukemia = test system: SR leukemia
SW-620 colon = test system: SW-620 colon
T-47D breast = test system: T-47D breast
TK-10 renal = test system: TK-10 renal
U251 CNS = test system: U251 CNS
UACC-257 melanoma = test system: UACC-257 melanoma
UACC-62 melanoma = test system: UACC-62 melanoma
UO-31 renal = test system: UO-31 renal

COc1ccc2c(c1)/C(=N/OC(C)=O)c1c-2c(Nc2cccc(/C(C)=N/OC(C)=O)c2)nc2ccccc12
GI50 (786-0 renal): 37 µM
TGI (786-0 renal): > 100 µM
GI50 (A498 renal): 57.3 µM
TGI (A498 renal): > 100 µM
GI50 (A549 NSCLC): 31.1 µM
TGI (A549 NSCLC): > 100 µM
GI50 (ACHN renal): 21.4 µM
TGI (ACHN renal): 61 µM
GI50 (CAKI-1 renal): 27.3 µM
TGI (CAKI-1 renal): 55.9 µM
GI50 (CCRF-CEM leukemia): 84.6 µM
TGI (CCRF-CEM leukemia): > 100 µM
GI50 (COLO 205 colon): > 100 µM
TGI (COLO 205 colon): > 100 µM
GI50 (DU-145 prostate): 29.5 µM
TGI (DU-145 prostate): 85.6 µM
GI50 (EKVX NSCLC): 21.9 µM
TGI (EKVX NSCLC): 53.1 µM
GI50 (HCC-2998 colon): 70.8 µM
TGI (HCC-2998 colon): > 100 µM
GI50 (HCT-116 colon): 41.5 µM
TGI (HCT-116 colon): > 100 µM
GI50 (HCT-15 colon): > 100 µM
TGI (HCT-15 colon): > 100 µM
GI50 (HL-60(TB) leukemia): > 100 µM
TGI (HL-60(TB) leukemia): > 100 µM
GI50 (HOP-62 NSCLC): 37.6 µM
TGI (HOP-62 NSCLC): > 100 µM
GI50 (HS 578T breast): 40.3 µM
TGI (HS 578T breast): > 100 µM
GI50 (HT29 colon): > 100 µM
TGI (HT29 colon): > 100 µM
GI50 (IGROV1 ovarian): 47.5 µM
TGI (IGROV1 ovarian): > 100 µM
GI50 (K-562 leukemia): 37.9 µM
TGI (K-562 leukemia): > 100 µM
GI50 (KM12 colon): 48.9 µM
TGI (KM12 colon): > 100 µM
GI50 (LOX IMVI melanoma): 67.7 µM
TGI (LOX IMVI melanoma): > 100 µM
GI50 (M14 melanoma): > 100 µM
TGI (M14 melanoma): > 100 µM
GI50 (MALME-3M melanoma): 96.4 µM
TGI (MALME-3M melanoma): > 100 µM
GI50 (MCF7 breast): 85.1 µM
TGI (MCF7 breast): > 100 µM
GI50 (MDA-MB-231 breast): > 100 µM
TGI (MDA-MB-231 breast): > 100 µM
GI50 (MDA-MB-435): > 100 µM
TGI (MDA-MB-435): > 100 µM
GI50 (MOLT-4 leukemia): 25.8 µM
TGI (MOLT-4 leukemia): 62.6 µM
GI50 (NCI-H226 lung): 86.3 µM
TGI (NCI-H226 lung): > 100 µM
GI50 (NCI-H23 lung): 35 µM
TGI (NCI-H23 lung): > 100 µM
GI50 (NCI-H460 lung): 97.4 µM
TGI (NCI-H460 lung): > 100 µM
GI50 (NCI-H522 lung): 35 µM
TGI (NCI-H522 lung): > 100 µM
GI50 (NCI/ADR-RES ovarian): 55.3 µM
TGI (NCI/ADR-RES ovarian): > 100 µM
GI50 (OVCAR-3 ovarian): 56.5 µM
TGI (OVCAR-3 ovarian): > 100 µM
GI50 (OVCAR-4 ovarian): 86.6 µM
TGI (OVCAR-4 ovarian): > 100 µM
GI50 (OVCAR-5 ovarian): > 100 µM
TGI (OVCAR-5 ovarian): > 100 µM
GI50 (OVCAR-8 ovarian): 17 µM
TGI (OVCAR-8 ovarian): 58.4 µM
GI50 (PC-3 prostate): 21.1 µM
TGI (PC-3 prostate): 41.5 µM
GI50 (RPMI-8226 leukemia): 64.6 µM
TGI (RPMI-8226 leukemia): > 100 µM
GI50 (RXF 393 renal): 13.4 µM
TGI (RXF 393 renal): 40.7 µM
GI50 (SF-268 CNS): 39 µM
TGI (SF-268 CNS): > 100 µM
GI50 (SF-295 CNS): 29.9 µM
TGI (SF-295 CNS): > 100 µM
GI50 (SF-539 CNS): 63.9 µM
TGI (SF-539 CNS): > 100 µM
GI50 (SK-MEL-2 melanoma): 59.1 µM
TGI (SK-MEL-2 melanoma): > 100 µM
GI50 (SK-MEL-28 melanoma): > 100 µM
TGI (SK-MEL-28 melanoma): > 100 µM
GI50 (SK-MEL-5 melanoma): 60.2 µM
TGI (SK-MEL-5 melanoma): > 100 µM
GI50 (SK-OV-3 ovarian): > 100 µM
TGI (SK-OV-3 ovarian): > 100 µM
GI50 (SN12C renal): 48.8 µM
TGI (SN12C renal): > 100 µM
GI50 (SNB-19 CNS): 55.4 µM
TGI (SNB-19 CNS): > 100 µM
GI50 (SNB-75 CNS): 30.9 µM
TGI (SNB-75 CNS): 64.5 µM
GI50 (SR leukemia): 94.4 µM
TGI (SR leukemia): > 100 µM
GI50 (SW-620 colon): 47.5 µM
TGI (SW-620 colon): > 100 µM
GI50 (T-47D breast): 37.3 µM
TGI (T-47D breast): > 100 µM
GI50 (TK-10 renal): 77.6 µM
TGI (TK-10 renal): > 100 µM
GI50 (U251 CNS): 32.4 µM
TGI (U251 CNS): > 100 µM
GI50 (UACC-257 melanoma): 36.2 µM
TGI (UACC-257 melanoma): > 100 µM
GI50 (UACC-62 melanoma): > 100 µM
TGI (UACC-62 melanoma): > 100 µM
GI50 (UO-31 renal): > 100 µM
TGI (UO-31 renal): > 100 µM
